This note sets out measurements from patent US8551999B2, “Heterocyclic compound and pharmaceutical composition thereof” (Otsuka Pharmaceutical Co., Ltd., priority 2007, dated 2013).

In data set [1] the test system is Human hepatic cancer cells (HuH-7). Description: Antitumor effect on hepatic cancer cells, HuH-7 (in vivo). The following applies: SCID mice bearing HuH-7 tumor, 10 mg/kg/day orally, once daily, 9 consecutive days; ratio of relative tumor volume treatment/control. How it is done: Human hepatic cancer cells (HuH-7) were transplanted in SCID mice (6 females/group) and the inhibitory effect of the invention on their growth was examined. In the study, 0.2 mL of a cell suspension adjusted to contain 2.5×10^7 cells/mL was injected subcutaneously in the right axilla to prepare tumor bearing mice. When the tumor diameter became 5 mm or more, the animals were allocated to groups based on the tumor volume. The test compound was administered orally as a suspension in 5% gum arabic, once daily, for 9 consecutive days. The control group received 5% gum arabic. Tumor volumes were measured on the following day of the last administration. The relative tumor volume was determined by calculating the ratio of the tumor volume on the following day of the last administration to that at group allocation. The ratio of the relative tumor volume in the treatment group to that in the control group (T/C %) was calculated as the index for the effect. Relative tumor volume=Tumor volume on the following day of the last administration/Tumor volume at group allocation. T/C %=(Mean relative tumor volume in the treatment group/Mean relative tumor volume in the control group)×100.

Data set [2] has as its system LI90 cells, a human hepatic stellate cell line. Description: Inhibitory effect on collagen synthesis (in vitro). Format: cell-based. The following applies: in the presence of recombinant human TGF-β1, 3H-proline labelled collagen in supernatant. The method, then:
Inhibitory Effect on Collagen Synthesis (In Vitro)
LI90 cells, a human hepatic stellate cell line, were suspended in DMEM (Dulbecco's modified eagle medium) supplemented with 10% inactivated FBS (fetal bovine serum), seeded on a 12-well plate and cultured in a CO2 incubator (preset temperature: 37° C., preset CO2 concentration: 5%). After being cultured for 24 hours, the cells were washed with D-PBS (Dulbecco's phosphate buffered saline), placed in MEM (Eagle's minimum essential medium) supplemented with 0.1% inactivated FBS and then cultured in a CO2 incubator. After being cultured for 3 days, the cells were again washed with D-PBS, placed in MEM (Eagle's minimum essential medium) supplemented with 0.1% inactivated FBS and treated with or without a test compound in the presence of […] recombinant human TGF-β1 (transforming growth factor-β1) in a CO2 incubator for 16 hours. After the incubation, the cells were washed with D-PBS and the medium was replaced with MEM containing 0.25 mM ascorbate. A radio-labeled compound, ^3H-proline, was then added to the culture medium to radio-label the collagen proteins produced. After being cultured for 24 hours, the supernatant was collected and the collagen proteins were extracted from the supernatant as acid-soluble fractions. The amount of collagen produced was determined by measuring the radioactivity contained in the fractions. A concentration of test compound that produced 50% inhibition [IC50 value (nM)] on collagen synthesis was calculated by comparing the radioactivity count in a supernatant of test-compound-treated cells with that of untreated cells (control).

Data set [3] concerns human hepatic cancer cells (HuH-7). The data set can be described thus: Antiproliferative effect on cancer cells (in vitro), sulforhodamine B method, HuH-7. As to conditions: HuH-7 cells, 5 days incubation with test compound. Format: cell-based. How it is done: (§1) Growth inhibition of human hepatic cancer cells (HuH-7) was determined by the sulforhodamine B method based on the method of Skehan P. et al. (J Natl Cancer Inst. 1990 Jul. 4; 82(13): 1107-12). In the study, HuH-7 cells were seeded on DMEM medium containing 10% fetal bovine serum in a 96-well microplate. After 24-hour incubation at 37° C. in the presence of 5% carbon dioxide, the test compound was added and the cells were incubated for another 5 days. After incubation, a trichloroacetic acid solution was added to yield the final concentration of 10% and the cells were left to stand at 4° C. for 1 hour to fix. Then, the cells were washed with water to remove the medium and trichloroacetic acid and dried in the air. The dried cells were stored at 4° C. until they were stained with sulforhodamine B. To each well, 1% acetic acid solution containing 0.4% sulforhodamine B was added and left to stand for 20 to 30 minutes at room temperature. After discarding the supernatant, each well was washed with 1% acetic acid solution, and 10 mM Tris ([…]) solution was added while stirring to elute the dye taken into the cells. Then, the optical density was determined at the measurement wavelength of 492 nm and the reference wavelength of 690 nm, and the difference was calculated. The cell growth activity in each well was defined as the value determined by subtracting the OD in the control well not containing cells (the difference in absorbance between 492 nm and 690 nm) from that in the test well.
(§2) The 50% inhibitory concentration (IC50 (nM)) of the test compound was determined by comparing the cell growth activity in the well containing the test compound with that of the control not containing the test compound.
On the technique in general: In SRB staining, fixed cells bind dye roughly in proportion to their protein.

A further data set relates to STAT3. Description: Inhibitory effect on IL-6-induced STAT3 phosphorylation in human myeloma cells (in vitro). Format: cell-based. As to conditions: U266B1 human myeloma cells, IL-6 1 ng/mL, pSTAT3 (Y705) by flow cytometry. (In general: A flow cytometer gives signals particle by particle.)
Data set [4] concerns human chronic myelocytic leukemia cells (KU812). The data set can be described thus: Antiproliferative effect on cancer cells (in vitro), WST-8 assay, KU812. Format: cell-based. As to conditions: 5 days incubation with test compound. How it is done:
The growth inhibition on human chronic myelocytic leukemia cells (KU812) was determined by a WST-8 assay according to the method of Singh A K, et al. (Cancer Lett. 1996 Oct. 1; 107(1): 109-15.). In this method, KU812 cells were seeded in RPMI 1640 medium containing 10% fetal bovine serum in a 96-well microplate and incubated at 37° C. for 24 hours in the presence of 5% carbon dioxide. Then, the test compound was added and the cells were incubated for another 5 days. After incubation, 15 μL of 5 mM WST-8 (2-(2-methoxy-4-nitrophenyl)-3-(4-nitrophenyl)-5-(2,4-disulfenyl)-2H-tetrazolium, monosodium salt) was added and the cells were incubated for 2 hours. After the 2-hour incubation, 15 μL of 1% SDS (sodium dodecyl sulfate) was added and the optical density was determined at the measurement wavelength of 450 nm and the reference wavelength of 630 nm, and the difference was calculated. The cell growth activity in each well was defined as the value determined by subtracting the OD in the control well not containing cells (the difference in absorbance between 492 nm and 690 nm) from that in the test well.
as §2

The test system of data set [5] is human pancreatic cancer cells (HPAC). The data set can be described thus: Antiproliferative effect on cancer cells (in vitro), sulforhodamine B method, HPAC. Format: cell-based. The following applies: 5 days incubation with test compound. How it is done:
as §1, §2
The growth inhibition on human pancreatic cancer cells (HPAC) was also determined by the above method using HPAC instead of HuH-7 and RPMI 1640 medium containing 10% fetal bovine serum instead of the DMEM medium containing 10% fetal bovine serum.

On to `CN(C(=O)c1ccc(C(F)(F)F)cc1)c1ccc(Oc2ccc3c(c2)cc(C(=O)N2CCN(Cc4ccc(OC(F)F)cc4)CC2)n3C)nc1.O=C(O)/C=C\C(=O)O` [Example 401, N-(6-{2-[4-(4-Difluoromethoxybenzyl)piperazine-1-carbonyl]-1-methyl-1H-indol-5-yloxy}pyridin-3-yl)-N-methyl-4-trifluoromethyl-benzamide maleate], for which the melting point (as a rule, the temperature, or range, at which the solid turns liquid) lay in the range of 146 to 147 °C. In addition, in data set [1], the T/C % is less than 50%. Moreover, the IC50 (as a rule, the concentration needed to halve the response being measured) in data set [2] is less than 10 nM. The molecule further returned an IC50 in data set [3] (Homo sapiens, 120 h) of less than 10 nM. Besides, in the data set on STAT3, the IC50 was less than 10 nM. The IC50 in data set [4] (Homo sapiens, 120 h) is less than 2 nM. The same molecule yielded an IC50 in data set [5] (Homo sapiens, 120 h) of less than 70 nM.
Take `Br.CN(C(=O)c1ccc(OC(F)(F)F)cc1)c1ccc(Oc2ccc3cc(C(=O)N4CCN(Cc5ccc(OC(F)F)cc5)CC4)n(C)c3c2)nc1` [Example 473, N-(6-{2-[4-(4-Difluoromethoxybenzyl)piperazine-1-carbonyl]-1-methyl-1H-indol-6-yloxy}pyridin-3-yl)-N-methyl-4-trifluoro-methoxybenzamide hydrobromide]: the T/C % in data set [1] is less than 50%. Also, the IC50 is less than 10 nM in data set [2], less than 10 nM in data set [3], less than 2 nM in data set [4] and less than 70 nM in data set [5].
`CC(C)Oc1ccc(CN2CCN(C(=O)c3cc4ccc(Oc5ncc(N(C)C(=O)c6ccc(C(F)(F)F)cc6)cn5)cc4n3C)CC2)cc1.Cl` [Example 521, N-(2-{2-[4-(4-Isopropoxybenzyl)piperazine-1-carbonyl]-1-methyl-1H-indol-6-yloxy}pyrimidin-5-yl)-N-methyl-4-trifluoromethyl-benzamide hydrochloride]: the T/C % in data set [1] is less than 50%. In addition, the IC50 is less than 10 nM in data set [3] (Homo sapiens, 120 h); less than 2 nM in data set [4] (Homo sapiens, 120 h); less than 70 nM in data set [5] (Homo sapiens, 120 h).
